Literature values in US11351128B1, “Pharmaceutical compositions and methods of administration” (priority 2021, dated 2022).

- soluble in water to the extent of: about 20 mg in 100 ml
Compound: CCN(CC)C(=S)SSC(=S)N(CC)CC [Disulfiram, tetraethyldisulfane-carbothioamide or 1-(diethylthiocarbamoyl-disulfanyl)-N,N-diethyl-methanethioamide]
